Experimental data: patent US12291504B2 (University of Pittsburgh—Of the Commonwealth System of …, priority 2018, dated 2025)
Read-outs that look alike come from different tables or passages of the source.

Legend:
[1] = test system: other major SULT isoforms found in liver and brain; assay: Inhibition of SULT isoforms by CMP8 (FIG. 1); assay type: biochemical; conditions: at concentrations as high as 2 mM
Experimental: (§1) The initial rates of SULT catalyzed 1-HP sulfonation are plotted as a function of inhibitor concentration, and are normalized relative to [inhibitor]=0. Enzyme activity was monitored by the sulfonation dependent change in 1-HP fluorescence (λex=325 nm, λem=370 nm). Less than 5% of the concentration-limiting substrate converted at the reaction endpoint was consumed during initial-rate measurements. Each point is the average of three independent determinations. Conditions: SULT (20 nM, active sites), PAPS (0.50 mM, 17×Km), 1-HP (5.0 μM, 61×Km), KPO4 (50 mM), pH 7.5, 25±2° C.
Such inhibitors alleviate inhibition when used competitively against total inhibitors that bind at the same site. […] Given these favorable characteristics, it was reasoned that the CMP8-binding site offered a new target that could be used to control 1A3 activity. Consequently, the solution structure of the CMP8-binding site was determined using spin-label-triangulation NMR. As used herein, the “CMP8-binding site” refers to the SULT1A3 allosteric site defined herein, which is different from the catechin- and NSAID-binding sites.

[2] = target: SULT1A3 spin-labeled at Cys 116 (Homo sapiens, UniProt P0DMM9, Q116C); assay: Initial-rate parameters, spin-labeled SULT1A3 mutant 116
Chain of SULT1A3 spin-labeled at Cys 116 (P0DMM9 whole entry Q116C): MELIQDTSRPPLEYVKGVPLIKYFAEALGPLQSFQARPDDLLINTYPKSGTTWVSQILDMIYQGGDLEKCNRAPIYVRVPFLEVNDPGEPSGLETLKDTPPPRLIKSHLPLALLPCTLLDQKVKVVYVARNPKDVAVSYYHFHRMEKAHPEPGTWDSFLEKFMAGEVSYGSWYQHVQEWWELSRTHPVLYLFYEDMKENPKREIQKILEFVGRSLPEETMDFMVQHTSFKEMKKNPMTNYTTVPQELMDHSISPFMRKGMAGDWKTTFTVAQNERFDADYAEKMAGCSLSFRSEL
Experimental: Covalent Tagging of SULT1A3 Cys Constructs. Labeling of the SULT1A3 Cys constructs was performed as described previously (17,18,21). Briefly, 3-maleimido-PROXYL (spin label) or N-cyclohexylmaleimide (diamagnetic control) was added to an enzyme containing solution at 20-fold excess over reactive Cys. Unreacted Cys was monitored using DNTB (17,18,21); reactions were considered complete when >98% of the Cys was labeled. Reaction conditions: SULT1A3 (50 μM, monomer), 3-maleimido-PROXYL or N-cyclohexylmaleimide (1.0 mM), PAP (0.50 mM), KPO4 (50 mM), pH 7.5, 4±2° C. To prepare samples for NMR, reaction mixtures were dialyzed three times against 40 volumes of PAP (0.50 mM), KPO4 (50 mM), pD 7.4, D2O (>95%), 4±2° C.
Initial-Rate Studies. Initial-rate parameters for the labeled or mutant SULT1A3 constructs were determined using a previously described 1-HP assay (25). […] Reactions were monitored via fluorescence change associated with the conversion of 1-HP to 1-HP-S (λex=325 nm, λem=370 nm). Keq for the 1-HP sulfonation reaction is −250. Given the reaction conditions outlined above, ≥99% of 1-HP is converted to 1-HP-S, and ˜0.4% of PAPS is converted to PAP at equilibrium. […] Reaction progress curves were analyzed to obtain initial-rate parameters as described previously (26,27).

SULT1A3 = SULT1A3 (Homo sapiens, UniProt P0DMM9); assay: SULT1A3 inhibition studies, 1-HP initial-rate fluorescence assay; assay type: biochemical; design: Wild-type and mutant SULT1A3 coding regions were inserted into a pGEX-6P expression vector; N-His/GST/MBP triple-tag (N, cleaved yes); made in house; host or cells: E. coli BL21(DE3); inhibition: dose or concentration left out as unconfirmed; conditions: for inhibition: read-out: SULT1A3 Enzyme Inhibition at Saturation/%
Chain of SULT1A3 (P0DMM9 whole entry): as the sequence (P0DMM9 whole entry Q116C) above, with C116Q counted along it
Experimental: as §1
(§2) Initial-Rate Studies. Initial-rate parameters for the labeled or mutant SULT1A3 constructs were determined using a previously described 1-HP assay (25). Briefly, reactions were initiated by addition of PAPS (0.50 mM, 17×Km) to a solution containing enzyme (20 nM, active sites), 1-HP (2.0 μM, ˜24×Km), and KPO4 (50 mM), pH 7.5, 25±2° C. Reactions were monitored via fluorescence change associated with the conversion of 1-HP to 1-HP-S (λex=325 nm, λem=370 nm). Keq for the 1-HP sulfonation reaction is −250. Given the reaction conditions outlined above, ≥99% of 1-HP is converted to 1-HP-S, and ˜0.4% of PAPS is converted to PAP at equilibrium. […] Reaction progress curves were analyzed to obtain initial-rate parameters as described previously (26,27).
(§3) Inhibition studies. Inhibition parameters were determined under conditions identical to those described above (see, Initial-Rate Studies) except that [1-HP] was increased to 5.0 μM (˜61×Km) and inhibitor concentration was varied between 0.20-20×Ki. Ki was obtained using a least-squares fit to the following partial inhibition equation (25,28): v=kcat·(Ki+(1/kcat inh)·[I])/(Ki+[I]), where kcat inh is enzyme turnover at saturating substrates and allosteric inhibitor.
as §2, with “(47).” for “(25).”, “˜250.” for “−250.”, “(48,49).” for “(26,27).”
as §3, with “(47,50): V/Vax=(Ki+α·[I])/(Ki+[I]),” for “(25,28): v=kcat·(Ki+(1/kcat inh)·[I])/(Ki+[I]),”, “α” for “kcat inh”, “is percentage of” for “is”, “turnover remaining” for “turnover”

Green Monkey (1A3) = Green Monkey (1A3) (Chlorocebus sabaeus, UniProt Z9LO20H8W3); assay: Inhibition of SULT1A3 homologues in different species: Green Monkey; assay type: biochemical
Chain of Green Monkey (1A3) (Z9LO20H8W3 1-295): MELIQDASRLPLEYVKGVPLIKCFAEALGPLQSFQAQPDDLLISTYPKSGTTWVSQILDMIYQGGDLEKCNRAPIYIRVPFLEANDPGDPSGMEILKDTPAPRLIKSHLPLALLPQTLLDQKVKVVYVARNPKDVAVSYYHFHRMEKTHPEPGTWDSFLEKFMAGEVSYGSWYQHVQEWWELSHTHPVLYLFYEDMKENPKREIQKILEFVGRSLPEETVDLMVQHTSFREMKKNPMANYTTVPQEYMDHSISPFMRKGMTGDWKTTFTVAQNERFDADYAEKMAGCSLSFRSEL
Experimental: (§4) Compounds 12, 23 and 25 were also tested for Inhibition of SULT1A3 in different species.
(§5) Inhibition of SULT1A3 Homologues in Different Species. SULT1A3 is only expressed in humans and higher primates. SULT1D1 is the isoform expressed in dogs and rodents that sulfonates neurotransmitters and is most similar to SULT1A3. Three synthesized allosteres (12, 23, and 25) were tested against both 1A3 and 1D1 from different species in order to explore testing in animal models. […] Mice have been engineered such that their SULT1A1/2 enzymes have been knocked out and replaced with the human versions of those isoforms.

Rhesus Macaque (1A3) = Rhesus Macaque (1A3) (Macaca mulatta, UniProt A0A5F7ZQH3); assay: Inhibition of SULT1A3 homologues in different species: Rhesus Macaque; assay type: biochemical
Chain of Rhesus Macaque (1A3) (A0A5F7ZQH3 1-295): as the sequence (Z9LO20H8W3 1-295) above, with A7T, V15M, C23Y, R230K, Y247F, A278E counted along it
Experimental: as §4, §5

Rat (1D1) = target: T1, Rat (1D1) (Rattus norvegicus, UniProt G3V9R3); assay: Inhibition of SULT1A3 homologues in different species: Rat; assay type: biochemical
T1 sequence (G3V9R3 1-295): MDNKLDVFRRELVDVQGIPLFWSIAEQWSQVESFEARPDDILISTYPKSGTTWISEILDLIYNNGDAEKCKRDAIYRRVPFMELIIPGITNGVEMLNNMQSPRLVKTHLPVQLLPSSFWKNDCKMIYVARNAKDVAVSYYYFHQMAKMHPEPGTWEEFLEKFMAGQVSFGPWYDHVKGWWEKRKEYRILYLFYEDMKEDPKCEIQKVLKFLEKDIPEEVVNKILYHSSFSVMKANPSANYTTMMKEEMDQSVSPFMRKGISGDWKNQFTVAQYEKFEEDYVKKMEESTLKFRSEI
Experimental: as §4, §5

[3] = ND = inhibition was not detected at 30 μM compound, parentheses one standard error, read-out: SULT1A3 Ki/μM

Row | Ki [2] [nM] | Ki (SULT1A3; FIG. 1, read-out: Ki of CMP8 for SULT1A3) [µM] | Ki (SULT1A3; [3]) [µM] | Ki (SULT1A3; WT enzyme, parentheses one standard deviation, read-out: Ki CMP8) [µM] | alleviation of inhibition by epigallochatechin gallate or mefenamic acid (SULT1A3; competition against near-total inhibitors of the catechin and NSAID sites) | inhibition (SULT1A3; parentheses one standard error) [%] | SULT1A3 turnover at saturation relative to absence of inhibitor (SULT1A3; partial inhibitor, at saturation) [%] | kcat (+CMP8)/kcat (−CMP8) (SULT1A3; saturating CMP8) | Green Monkey (1A3) % inh (Green Monkey (1A3)) | Ki (Green Monkey (1A3); parentheses one standard error) [nM] | Rhesus Macaque (1A3) % inh (Rhesus Macaque (1A3)) | Ki (Rhesus Macaque (1A3); parentheses one standard error) [nM] | Rat (1D1) % inh (Rat (1D1)) | Ki (Rat (1D1); parentheses one standard error) [nM] | affinity for SULT1A3 (in words) (SULT1A3) | Ki (SULT1A3; standard error in neighbouring cell, read-out: Human (1A3) Ki) [µM] | inhibition at saturation (SULT1A3; text b218) [%] | Structure (SMILES) | inhibition of other major SULT isoforms [1]
1 | 37 | 0.034 | 0.034 | 0.034 | did not alleviate inhibition | 54 | 46 | 0.46±0.08 | – | – | – | – | – | – | – | – | – | CC(C)Cc1ccc2cc(CO)ccc2n1 [Compound 8, (2-Isobutylquinolin-6-yl)methanol] | does not detectably inhibit
2 | – | – | 0.069 | – | – | 83 | – | – | 71 (3) % | 170 | 97 (2) % | 38 | 33 (4) % | 2500 | low micromolar affinity | 0.05 | 83 | CC(C)Cc1ccc2cc(CCC(N)=O)ccc2n1 [Compound 12] | –
